Assay results published in patent US20180147183A1, “USE OF R-OXIRACETAM IN PHARMACEUTICAL FIELD” (Chongqing Runze Pharmaceutical Co., Ltd., priority 2015, published 2018).
Marks after values point to notes of the source that are not given here.

Tested on: Pentetrazol (PTZ) ignited rat epilepsy model
Experiment: Pentetrazol (PTZ)-ignited rat epilepsy model
Format: in vivo, SD rats
Settings: for mortality rate / Numbers of deaths (Number): 10 days
Protocol: Rats were injected intraperitoneally with PTZ at a dose of 35 mg/kg (7 mg/ml, 0.5 ml/100 g body weight) for sub-convulsions three times weekly. The animals are weighed before each ip, and observed for behavioral changes after ip. within 1-2 h. Behavioral scoring was carried out according to the revised Racine score. Three consecutive occurrences of seizures of stage IV and above indicate successful ignition.
The animals successfully ignited were chosen to be grouped. The animals were randomly divided into 4 groups, 8-10/group. […] 3 times of clinical dose were chosen, that is, 500 mg/kg. […] The dosage is 1 ml/100 g, continuous intragastrical administration of 10 days. Specific dose settings are as follows:
PTZ 35 mg/kg. The animals are observed for behavioral changes within 2 h. Behavioral scoring was carried out according to the revised Racine score, continuous administration for 10 days, grading standards as mentioned above.
The seizures were recorded daily ip PTZ within 2 h. The seizure levels, latencies, mortality were recorded, and compared with the model control group.

## NC(=O)CN1C[C@H](O)CC1=O [R-oxiracetam, (R)-4-hydroxy-2-oxo-1-pyrrolidineacetamide]
High-dose 360 mg/kg daily, D1
  Seizure latency (X ± SD): 3.83 ± 1.17 m
  occurrence rates of stage IV or above seizures: 4/6 (66.7) %
High-dose 360 mg/kg daily, D2
  Seizure latency (X ± SD): 5.00 ± 0.89 m
  occurrence rates of stage IV or above seizures: 3/6(50.0) %
High-dose 360 mg/kg daily, D3
  Seizure latency (X ± SD): 6.17 ± 1.17 m
  occurrence rates of stage IV or above seizures: 3/6 (50.0) %
High-dose 360 mg/kg daily, D4
  Seizure latency (X ± SD): 6.50 ± 1.05 m
  occurrence rates of stage IV or above seizures: 2/6 (33.3) %
High-dose 360 mg/kg daily, D5
  Seizure latency (X ± SD): 7.17 ± 0.75 m
  occurrence rates of stage IV or above seizures: 1/6 (16.7) %
High-dose 360 mg/kg daily, D6
  Seizure latency (X ± SD): 7.83 ± 0.75 m
  occurrence rates of stage IV or above seizures: 1/6 (16.7) %
High-dose 360 mg/kg daily, D7
  Seizure latency (X ± SD): 8.33 ± 1.03 m
  occurrence rates of stage IV or above seizures: 0/6** (0) %
High-dose 360 mg/kg daily, D8
  Seizure latency (X ± SD): 8.83 ± 0.98 m
  occurrence rates of stage IV or above seizures: 0/6** (0) %
High-dose 360 mg/kg daily, D9
  Seizure latency (X ± SD): 8.83 ± 0.75 m
  occurrence rates of stage IV or above seizures: 0/6* (0) %
High-dose 360 mg/kg daily, D10
  Seizure latency (X ± SD): 9.83 ± 0.75 m
  occurrence rates of stage IV or above seizures: 0/6* (0) %
High-dose 360 mg/kg intragastric
  mortality rate: 0%
High-dose 360 mg/kg intragastric, 6 animals, 360 mg/kg
  Numbers of deaths (Number): No animal died
High-dose 360 mg/kg intragastric, 6 animals, listed as R-Oxiracetam, 360 mg/kg
  Numbers of deaths (Number): 0
Low-dose 120 mg/kg daily, D1
  Seizure latency (X ± SD): 3.57 ± 1.51 m
  occurrence rates of stage IV or above seizures: 4/7 (57.1) %
Low-dose 120 mg/kg daily, D2
  Seizure latency (X ± SD): 4.57 ± 1.72 m
  occurrence rates of stage IV or above seizures: 4/6(66.7) %
Low-dose 120 mg/kg daily, D3
  Seizure latency (X ± SD): 5.00 ± 1.15 m
  occurrence rates of stage IV or above seizures: 3/6 (50.0) %
Low-dose 120 mg/kg daily, D4
  Seizure latency (X ± SD): 4.86 ± 1.07 m
  occurrence rates of stage IV or above seizures: 2/6 (33.3) %
Low-dose 120 mg/kg daily, D5
  Seizure latency (X ± SD): 5.43 ± 0.98 m
  occurrence rates of stage IV or above seizures: 2/6 (33.3) %
Low-dose 120 mg/kg daily, D6
  Seizure latency (X ± SD): 6.29 ± 1.11 m
  occurrence rates of stage IV or above seizures: 2/6 (33.3) %
Low-dose 120 mg/kg daily, D7
  Seizure latency (X ± SD): 6.86 ± 1.07 m
  occurrence rates of stage IV or above seizures: 1/6* (16.7) %
Low-dose 120 mg/kg daily, D8
  Seizure latency (X ± SD): 7.14 ± 1.07 m
  occurrence rates of stage IV or above seizures: 1/6* (16.7) %
Low-dose 120 mg/kg daily, D9
  Seizure latency (X ± SD): 7.71 ± 0.76 m
  occurrence rates of stage IV or above seizures: 0/6* (0) %
Low-dose 120 mg/kg daily, D10
  Seizure latency (X ± SD): 8.43 ± 0.98 m
  occurrence rates of stage IV or above seizures: 0/6* (0) %
Low-dose 120 mg/kg intragastric
  mortality rate: 14.3%
Low-dose 120 mg/kg intragastric, 7 animals, 120 mg/kg
  Numbers of deaths (Number): No animal died
Low-dose 120 mg/kg intragastric, 7 animals, listed as R-Oxiracetam, 120 mg/kg
  Numbers of deaths (Number): 1
